Molecules are shown by their SMILES. Like-named read-outs stand apart in the source and are kept apart here.

The nature of series [1]: Solubility Test (35 wt% solution in isopropylalcohol shaken with water, brine or heptane). The class given is physicochemical. How it is done:
The active material under test was made up into a 35 wt% solution in isopropylalcohol (IPA). 0.3 ml of this solution was shaken with 10 ml of each of the liquids in which solubility is to be tested: water, 5 wt% NaCl solution (brine) and heptane. The mixture was observed after 30 minutes and 24 hours.

The nature of series [2]: Emulsion Test (3 wt% brine / heptane). It is filed as physicochemical. Also on record: Emulsion thickness after 30 mins: unit not given here. As to conditions: for Time to break emulsion: 1 ml of 35 wt% IPA solution, 50 ml 3 wt% brine, 50 ml heptane; for Appearance after 30 mins, hydrocarbon: hydrocarbon layer; for Appearance after 30 mins, water: water layer. How it is done:
1 ml of the solutions used for Test A was shaken with 50 ml of 3 wt% brine and 50 ml of heptane for 1 minute in a 150 ml bottle. The emulsion was observed, and the time noted for the emulsion to break and form a clean interface with clear liquid layers. If at 30 minutes this had not occurred, the appearance was recorded together with the thickness of any persisting emulsion.

Series [3] can be described thus: Corrosion Test 1 (dynamic wheel test; 3 wt% brine/Mentor 28; CO2 + H2S). Conditions: 24 h, 70° C. The method, then:
(§1) For each compound three mild steel coupons (approximately 100 mm×12 mm×1.5 mm) were tested at each concentration. Each was contacted in a 250 ml bottle with 200 ml of a test fluid either saturated with a carbon dioxide at 20° C. or containing 100 ppm hydrogen sulphide or having both CO2 and H2 S present in those amounts. The test fluid was treated with a 30% aqueous solution of the compound under test at 2, 10, 50 and 250 ppm except where indicated to the contrary. The coupon was subjected to a dynamic wheel test in which the bottle was mounted radially on the periphery of 650 mm diameter wheel which was rotated at about 40 rpm for 24 hours at 70° C. The weight loss was obtained, and also measured in a control experiment where no inhibitor was present. From this the % protection was calculated as % reduction in weight loss.
Test fluid: 100 ml 3 wt% brine/100 ml Mentor 28 (Mentor®28 is a depolarised kerosene available from Exxon Chemical Company)
(§2) Corrosives: Saturated CO2 +100 ppm H2 S

A short description of series [4]: Corrosion Test 2 (dynamic wheel test; 3 wt% brine; CO2 + H2S). As to conditions: 24 h, 70° C. How it is done: as §1
Test Fluid: 200 ml 3 wt% brine
as §2

The nature of series [5]: Corrosion Test 4 (dynamic wheel test; 3 wt% brine + Mentor 28; H2S). Conditions: 24 h, 70° C. How it is done:
as §1
(§3) Test fluid: 100 ml 3 wt% brine+100 ml Mentor 28
Corrosives: 100 ppm H2 S (prior nitrogen purge)

A short description of series [6]: Film persistency corrosion test. As to conditions: CO2 + H2S, 24 h, 70° C. How it is done: […] A test fluid made up of equal proportions of 3 wt% brine and Mentor 28 was used, saturated with CO2 and containing 100 ppm H2 S as corrosives. Coupons were used as described for the previous corrosion test. A coupon was first immersed in test fluid containing corrosives and the inhibitor under test for 1 hour, then rinsed for 1 hour in a similar test fluid containing no inhibitor and finally transferred to a further test fluid again containing no inhibitor in which the dynamic wheel test was carried out at 70° C. for 24 hours.

Series [7] is described as follows: Corrosion Test 3 (dynamic wheel test; 3 wt% brine + Mentor 28; CO2 only). Conditions: 24 h, 70° C. The method, then:
as §1, §3
Corrosives: Saturated CO2 only

[8] abbreviates: 50 ml 3 wt% brine/50 ml heptane.
Where [9] appears, read: 0.3 ml of 35 wt% IPA solution in 10 ml heptane, 30 minutes and 24 hours.
Setting [10] is: 0.3 ml of 35 wt% IPA solution in 10 ml water, observed after 30 minutes and 24 hours.
Where [11] appears, read: 0.3 ml of 35 wt% IPA solution in 10 ml 5 wt% NaCl solution, 30 minutes and 24 hours.

On to `CCCCCCNCCc1ccccn1` [Example 1], for which, in series [1], the “SOLUBILITY IN: Brine” value was “S”. In addition, the “SOLUBILITY IN: Heptane” value in series [1] is listed as “S”. Also, the “SOLUBILITY IN: Water” value in series [1] is on record as “S”. Moreover, in series [2], the “Time to break emulsion” value amounted to 30 min. Also, in series [2] (setting [8]), the “Appearance after 30 mins, hydrocarbon” value is reported as “clear”. Moreover, the “Appearance after 30 mins, water” value in series [2] (setting [8]) is “clear”. The “% Protection” value in series [3] (2 ppm, 30% solution) stood at 15%; in series [3] (10 ppm, 30% solution) it was 73%; in series [3] (50 ppm, 30% solution), 79%; in series [3] (250 ppm, 30% solution) it was 91%; in series [4] (2 ppm), 13%; in series [4] (10 ppm) it was 57%. The “% Protection” value in series [4] (50 ppm) worked out at 83%; in series [4] (250 ppm) it was 93%; in series [5] (2 ppm), 0%; in series [5] (10 ppm) it was 22%; in series [5] (50 ppm), 55%; in series [5] (250 ppm), 55%. Besides, the “% Protection” value in series [6] (500 ppm) is on record as 18%; in series [6] (1000 ppm), 25%; in series [6] (5000 ppm), 17%.
Turning to `CCCCCCCCCCCCCCCCNCCc1ccccn1` [Example 6], the “SOLUBILITY IN: Heptane” value in series [1] (setting [9]) is recorded as “S”. Also, the “SOLUBILITY IN: Water” value in series [1] (setting [10]) is listed as “S”. Further, the “Time to break emulsion” value in series [2] is more than 30 min. Moreover, the “Emulsion thickness after 30 mins” value in series [2] (setting [8]) is 1.0. In series [2] (setting [8]), the “Appearance after 30 mins, hydrocarbon” value is given as “hazy”. Further, in series [2] (setting [8]), the “Appearance after 30 mins, water” value was “hazy”. The “% Protection” value in series [3] (2 ppm, 30% solution) was determined as 7%; in series [3] (10 ppm, 30% solution) it was 72%; in series [3] (50 ppm, 30% solution), 89%; in series [3] (250 ppm, 30% solution), 98%; in series [4] (2 ppm), 20%; in series [4] (10 ppm), 41%. In addition, the “% Protection” value in series [4] (50 ppm) is recorded as 93%; in series [4] (250 ppm), 97%; in series [5] (2 ppm), 0%; in series [5] (10 ppm), 21%; in series [5] (50 ppm) it was 58%; in series [5] (250 ppm), 70%.
In the case of `CCCCCCCCCCCCCCCCCCNCCc1ccccn1` [Example 7], the “SOLUBILITY IN: Heptane” value in series [1] (setting [9]) is on record as “S”. Also, the “SOLUBILITY IN: Water” value in series [1] (setting [10]) was “S”. The “Time to break emulsion” value in series [2] was more than 30 min. Besides, the “Appearance after 30 mins, hydrocarbon” value in series [2] (setting [8]) is given as “emulsified”. The “Appearance after 30 mins, water” value in series [2] (setting [8]) is “clear”. The “% Protection” value in series [3] (2 ppm, 30% solution) is recorded as 13%; in series [3] (10 ppm, 30% solution) it was 52%; in series [3] (50 ppm, 30% solution), 87%; in series [3] (250 ppm, 30% solution), 95%; in series [4] (2 ppm), 81%; in series [4] (10 ppm), 89%. Further, the “% Protection” value in series [4] (50 ppm) turned out to be 99%; in series [4] (250 ppm) it was 99%; in series [7] (2 ppm) it was 2%; in series [7] (10 ppm) it was 22%; in series [7] (50 ppm), 48%; in series [7] (250 ppm), 67%. The “% Protection” value in series [6] (500 ppm) is on record as 13%; in series [6] (1000 ppm), 10%; in series [6] (5000 ppm) it was 19%.
As for `NCCNCCc1ccccn1` [Example 13], in series [1] (setting [11]), the “SOLUBILITY IN: Brine” value is given as “S”. Moreover, the “SOLUBILITY IN: Heptane” value in series [1] (setting [9]) is given as “S”. Further, the “SOLUBILITY IN: Water” value in series [1] (setting [10]) was “S”. Moreover, the “Time to break emulsion” value in series [2] was more than 30 min. Further, the “Appearance after 30 mins, hydrocarbon” value in series [2] (setting [8]) is reported as “clear”. The “Appearance after 30 mins, water” value in series [2] (setting [8]) is given as “hazy”. Besides, the “% Protection” value is listed as 43% in series [3] (2 ppm, * active material added as undiluted compound); 67% in series [3] (10 ppm, * active material added as undiluted compound); 82% in series [3] (50 ppm, * active material added as undiluted compound); 92% in series [3] (250 ppm, * active material added as undiluted compound); 40% in series [4] (2 ppm); 42% in series [4] (10 ppm). Moreover, the “% Protection” value in series [4] (50 ppm) was determined as 74%; in series [4] (250 ppm), 89%; in series [7] (2 ppm) it was 0%; in series [7] (10 ppm) it was 10%; in series [7] (50 ppm) it was 19%; in series [7] (250 ppm), 23%. The “% Protection” value was 40% in series [5] (10 ppm) and 57% in series [5] (250 ppm).
For the compound `NCCNCCNCCc1ccccn1` [Example 15], in series [1] (setting [11]), the “SOLUBILITY IN: Brine” value was “S”. For the same compound, the “SOLUBILITY IN: Water” value in series [1] (setting [10]) is recorded as “S”. The “Time to break emulsion” value in series [2] is 10 min. In addition, the “Appearance after 30 mins, hydrocarbon” value in series [2] (setting [8]) is on record as “clear”. Also, the “Appearance after 30 mins, water” value in series [2] (setting [8]) is on record as “clear”. Moreover, the “% Protection” value in series [3] (2 ppm, 30% solution) amounted to 32%; in series [3] (10 ppm, 30% solution), 72%; in series [3] (50 ppm, 30% solution), 80%; in series [3] (250 ppm, 30% solution), 87%; in series [4] (2 ppm), 22%; in series [4] (10 ppm), 63%. The “% Protection” value is 81% in series [4] (50 ppm); 87% in series [4] (250 ppm); 13% in series [6] (500 ppm); 11% in series [6] (1000 ppm); 17% in series [6] (5000 ppm).
As to `NCCNCCNCCNCCc1ccccn1` [Example 16], the “SOLUBILITY IN: Brine” value in series [1] (setting [11]) was “S”. In addition, the “SOLUBILITY IN: Heptane” value in series [1] (setting [9]) is given as “S/D”. In addition, the “SOLUBILITY IN: Water” value in series [1] (setting [10]) is “S”. Also, in series [2], the “Time to break emulsion” value came to 10 min. The “Appearance after 30 mins, hydrocarbon” value in series [2] (setting [8]) is listed as “clear”. Further, in series [2] (setting [8]), the “Appearance after 30 mins, water” value is recorded as “clear”. Besides, the “% Protection” value in series [3] (2 ppm, 30% solution) was 32%; in series [3] (10 ppm, 30% solution), 72%; in series [3] (50 ppm, 30% solution), 81%; in series [3] (250 ppm, 30% solution), 89%; in series [4] (2 ppm), 37%; in series [4] (10 ppm) it was 59%. Moreover, the “% Protection” value worked out at 81% in series [4] (50 ppm); 89% in series [4] (250 ppm); 10% in series [5] (2 ppm); 48% in series [5] (10 ppm); 56% in series [5] (50 ppm); 61% in series [5] (250 ppm).
Take `NCCNCCNCCc1ccncc1` [Example 34]: the “SOLUBILITY IN: Brine” value in series [1] (setting [11]) was “S”. The “SOLUBILITY IN: Water” value in series [1] (setting [10]) was “S”. Further, in series [2], the “Time to break emulsion” value is 1 min. Moreover, the “Appearance after 30 mins, hydrocarbon” value in series [2] (setting [8]) is given as “clear”. In addition, the “Appearance after 30 mins, water” value in series [2] (setting [8]) was “clear”. Besides, the “% Protection” value in series [3] (2 ppm, 30% solution) is listed as 22%; in series [3] (10 ppm, 30% solution), 50%; in series [3] (50 ppm, 30% solution), 66%; in series [3] (250 ppm, 30% solution), 80%; in series [4] (2 ppm) it was 18%; in series [4] (10 ppm), 26%. Besides, the “% Protection” value in series [4] (50 ppm) is recorded as 48%; in series [4] (250 ppm), 69%; in series [7] (2 ppm), 6%; in series [7] (10 ppm) it was 11%; in series [7] (50 ppm) it was 13%; in series [7] (250 ppm), 18%. In addition, the “% Protection” value was 20% in series [5] (2 ppm), 45% in series [5] (10 ppm), 62% in series [5] (50 ppm) and 67% in series [5] (250 ppm).
For `NCCNCCNCCNCCc1ccncc1` [Example 35], the “SOLUBILITY IN: Brine” value in series [1] (setting [11]) is given as “S”. Besides, the “SOLUBILITY IN: Water” value in series [1] (setting [10]) is listed as “S”. Besides, the “Time to break emulsion” value in series [2] came out at 1 min. Also, in series [2] (setting [8]), the “Appearance after 30 mins, hydrocarbon” value is given as “clear”. Also, the “Appearance after 30 mins, water” value in series [2] (setting [8]) is “clear”. Besides, the “% Protection” value in series [6] (500 ppm) was 19%; in series [6] (1000 ppm) it was 18%; in series [6] (5000 ppm), 20%.

(Values after US4515708A, “Corrosion inhibitors” (Exxon Research & Engineering Co., priority 1982, dated 1985).)
